Entries after “also recorded” stand apart in the source; their conditions may differ. Counter-ions that a name gives are not always drawn. One block for each compound: values may come before it.
Legend:
Format in all cases: physicochemical
[1] = Gravimetric vapour sorption (GVS)
Description: Sorption isotherms were obtained using a Hiden IGASorp moisture sorption analyser, controlled by CFRSorp software. The sample temperature was maintained at 25° C. by a Huber re-circulating water bath. The humidity was controlled by mixing streams of dry and wet nitrogen, with a total flow rate of 250 ml/min. The relative humidity (RH) was measured by a calibrated Vaisala RH probe (dynamic range of 0-95% RH), located near the sample. The weight change, (mass relaxation) of the sample as a function of % RH was constantly monitored by the microbalance (accuracy ±0.001 mg). Typically 10-20 mg of sample was placed in a tared mesh stainless steel basket under ambient conditions. The sample was loaded and unloaded at 40% RH and 25° C. (typical room conditions). A moisture sorption isotherm was performed as outlined below (2 scans giving 1 complete cycle). The standard isotherm was performed at 25° C. at 10% RH intervals over a 0-90% RH range.
The software uses a least squares minimisation procedure together with a model of the mass relaxation, to predict an asymptotic value. The measured mass relaxation value must be within 5% of that predicted by the software, before the next % RH value is selected. The minimum equilibration time was set to 1 hour and the maximum to 4 hours. The sample was recovered after completion of the isotherm and re-analysed by XRPD.

[2] = Polymorph screen: maturation (temperature cycling RT/50° C.) in solvents
Description: One of 21 solvents was added to each vial in a number of aliquots (up to 30 volumes), with shaking. All the samples were then placed under maturation between RT to 50° C. (4 hours at each temperature) for 3 days. After maturation the samples were analysed by XRPD. Clear solutions were cooled to −20° C. (freezer). If no precipitation occurred samples were evaporated at RT.
Samples were placed under maturation between RT-50° C. (4 hours cycle) for 3 days. After maturation the samples were analyzed by XRPD. Clear solutions were then cooled to −20° C. (freezer). If no precipitation occurred, samples were evaporated at RT.
Bis-Sulfuric acid salt Form 1 of Compound 1 (ca. 35 mg) was weighed into vials. The corresponding solvents and solvent mixtures were added in portions of (a total of) 5, 10, 20, and 30 volumes at 50° C., with shaking, aiming for clear solutions. After each addition, the vials were allowed to shake for 20 minutes, after which observations were made. Solutions were allowed to evaporate, whereas slurries were set for 8 hour temperature cycling maturation, between RT and 50° C., for 5 days.
The oils obtained by solvent evaporation were used for the maturation screen. Anhydrous solvents (5 volumes; 100 μL) were used in order to minimise the amount of water present. Any solutions were allowed to slowly evaporate, whereas slurries were set for 8 hour temperature cycling maturation, between RT and 50° C. After 24 hours, most oils had not mixed with the solvents, and these were scratched with a spatula, producing slurries. These were matured for a further 24 hours before performing XRPD analysis.
Amorphous free base Compound 1 (ca. 25 mg) was weighed into vials. The selected solvents and solvent mixtures (5 to 20 volumes) were added with stirring. Any solutions were allowed to slowly evaporate, whereas slurries were set for 8 hour temperature cycling maturation, between RT and 50° C., for 2 days.
Crystals were ground in order to analyse them by XRPD. Suspensions were set for temperature cycling for a total of five days after which time XRPD analysis was carried out. […] Similar to the screen in Example 20, these XRPD patterns show slight differences (FIG. 37). However, solids from both screens obtained from the same solvent show a matching XRPD pattern, also supporting that this is a series of isostructural solvates. […]

[3] = Solubility assessment using free base Hydrate Form 2; conditions: RT (cell says RT, head 50° C.)
Description: The best solvent systems (clear solutions) were methanol:anisole 1:1 and DMSO (10 volumes, at RT), dioxane (10 volumes, 50° C.), chloroform (20 volumes, RT). […]

[4] = Storage at 40° C./75% RH (solid-state stability); conditions: for Stability on storage at 40° C./75% RH: 1 week, solid form by XRPD; for Storage 40° C./75% RH: salt screen solids stored 1 week, outcome / XRPD pattern after storage
Description: The crystalline solids were filtered, dried at ambient conditions, and stored at 40° C./75% RH for 1 week and analyzed by ^1H NMR/IC.
Samples from the screen using amorphous free base Compound 1 were analysed by ^1H-NMR and DSC, and re-analysis by XRPD was also carried out after drying at 50° C./vacuum and storage at 40° C./75% RH (the same sample was dried and stored at elevated humidity).

Compound: CC(=O)O.COc1cc(-c2cccc3cc([C@H](C)Nc4nc(N)ncc4C#N)n(-c4ccccc4)c(=O)c23)ccn1.COc1cc(-c2cccc3cc([C@H](C)Nc4nc(N)ncc4C#N)n(-c4ccccc4)c(=O)c23)ccn1 [Batch 1 of Form 6]
GVS: XRPD after the experiment [1]: anhydrous Form 4 | GVS: moisture on loading ([1]; 25° C.): 6.3% w/w moisture on | GVS: reversible moisture uptake between 0-90% RH ([1]; second cycle): cycle shows 4.9%

Compound: COc1cc(-c2cccc3cc([C@H](C)Nc4nc(N)ncc4C#N)n(-c4ccccc4)c(=O)c23)ccn1.O [FB Hydrate Form 2]
XRPD ([2]; 1-butanol, Maturation): Crystalline Form 5 | XRPD ([2]; 2-MeTHF, evaporation yielded oil, maturation of oil): Crystalline Form 5 | XRPD ([2]; Acetone, Maturation): Crystalline Form 5 | XRPD ([2]; DCM:MeOH 1:1, Crystallization in fridge): Crystalline Form 5 + Form 1 | XRPD ([2]; DCM, Crystallization in fridge): Crystalline Form 5 | XRPD ([2]; DMSO, no crystallization in fridge, set for evaporation): Amorphous | XRPD ([2]; Dioxane, evaporation yielded oil, maturation of oil): Crystalline Form 5 + Form 3 | XRPD ([2]; EtOAc, Maturation): Crystalline Form 5 | XRPD ([2]; EtOH/5% water, Maturation): Crystalline Form 5 | XRPD ([2]; EtOH/water 1:1, Maturation): Crystalline Form 2 | XRPD ([2]; EtOH, Maturation): Crystalline Form 5 | XRPD ([2]; IPA, Maturation): Crystalline Form 5 | XRPD ([2]; IPAc, Maturation): Crystalline Form 5 | XRPD ([2]; MIBK, Maturation): Crystalline Form 5 | XRPD ([2]; MeCN/5% water, Crystallization in fridge): Crystalline Form 5 | XRPD ([2]; MeOH/anisole, Crystallization in fridge): Crystalline Form 5 | XRPD ([2]; THF, Crystallization in fridge): Crystalline Form 5 | XRPD ([2]; acetonitrile, Maturation): Crystalline Form 5 | XRPD ([2]; chloroform, cooling in fridge yielded oil, maturation of oil): Crystalline Form 5 | Solubility ([3]; DMSO, 10 vols): ✓ (RT) | Solubility ([3]; MeOH/anisole, 10 vols): ✓ (RT) | Solubility ([3]; chloroform, 20 vols): ✓ (RT)

Compound: COc1cc(-c2cccc3cc([C@H](C)Nc4nc(N)ncc4C#N)n(-c4ccccc4)c(=O)c23)ccn1 [Form 1 of the hydrochloride salt of Compound 1] [(S)-2-amino-4-((1-(8-(2-methoxypyridin-4-yl)-1-oxo-2-phenyl-1,2-dihydroisoquinolin-3-yl)ethyl)amino)pyrimidine-5-carbonitrile]
Stability on storage at 40° C./75% RH [4]: deliquesces | Stability on storage at 40° C./75% RH ([4]; listed as hydrochloride): deliquesced | Storage 40° C./75% RH ([4]; listed as Hydrochloric acid): Deliquesced

The next lines start with results.

Stability on storage at 40° C./75% RH [4]: deliquesces | Stability on storage at 40° C./75% RH ([4]; listed as isethionate): deliquesced | Storage 40° C./75% RH ([4]; listed as 2-Hydroxyethane sulfonic acid): Deliquesced
Compound: COc1cc(-c2cccc3cc([C@H](C)Nc4nc(N)ncc4C#N)n(-c4ccccc4)c(=O)c23)ccn1 [Form 1 of the isethionate salt of Compound 1] [(S)-2-amino-4-((1-(8-(2-methoxypyridin-4-yl)-1-oxo-2-phenyl-1,2-dihydroisoquinolin-3-yl)ethyl)amino)pyrimidine-5-carbonitrile]

GVS: moisture on loading ([1]; 25° C.): 0.3 % w/w | GVS: uptaken between 70-90% RH ([1]; 25° C., with hysteresis on desorption): 4.8 % w/w
Compound: COc1cc(-c2cccc3cc([C@H](C)Nc4nc(N)ncc4C#N)n(-c4ccccc4)c(=O)c23)ccn1 [Form 4 of Free Base Compound 1]

XRPD after Storage at 40° C./75% RH ([4]; screening sample from H2O): No changes
Compound: COc1cc(-c2cccc3cc([C@H](C)Nc4nc(N)ncc4C#N)n(-c4ccccc4)c(=O)c23)ccn1 [Form 4 of the free base of Compound 1, (S)-2-amino-4-((1-(8-(2-methoxypyridin-4-yl)-1-oxo-2-phenyl-1,2-dihydroisoquinolin-3-yl)ethyl)amino)pyrimidine-5-carbonitrile]
GVS: form change with humidity ([1]; above 80% RH): hydrates above 80% RH, but reversibly dehydrates back at 40% RH

GVS: form change with humidity ([1]; at 0% RH): Desolvation to the anhydrous Form 4 | Stability on storage at 40° C./75% RH [4]: converts to Form 3 | Storage at elevated humidity ([4]; elevated humidity conditions, solid form): conversion to Hydrate Form 3
Compound: COc1cc(-c2cccc3cc([C@H](C)Nc4nc(N)ncc4C#N)n(-c4ccccc4)c(=O)c23)ccn1 [Form 6 of the free base of Compound 1, (S)-2-amino-4-((1-(8-(2-methoxypyridin-4-yl)-1-oxo-2-phenyl-1,2-dihydroisoquinolin-3-yl)ethyl)amino)pyrimidine-5-carbonitrile]

XRPD ([2]; 2-MeTHF 200 μL, cycling RT/50° C.): Crystalline Form 5 | XRPD ([2]; Acetone 100 μL, cycling RT/50° C.): Crystalline Form 5 | XRPD ([2]; Acetonitrile 200 μL, cycling RT/50° C.): Crystalline Form 5 | XRPD ([2]; DCM 150 μL, cycling RT/50° C.): Crystalline Form 5 | XRPD ([2]; DCM:MeOH 1:1 150 μL, cycling RT/50° C.): Crystalline Form 5 | XRPD ([2]; DME 150 μL, cycling RT/50° C.): Crystalline Form 5 | XRPD ([2]; EtOAc 100 μL, cycling RT/50° C.): Crystalline Form 5 | XRPD ([2]; EtOH 250 μL, cycling RT/50° C.): Crystalline Form 5 | XRPD ([2]; EtOH/5% water 150 μL, cycling RT/50° C.): Crystalline Form 5 | XRPD ([2]; IPA 150 μL, cycling RT/50° C.): Crystalline Form 5 | XRPD ([2]; IPAc 300 μL, 16 hours maturation): Crystalline Form 5 | XRPD ([2]; MIBK 100 μL, cycling RT/50° C.): Crystalline Form 5 | XRPD ([2]; MeCN/5% water 150 μL, cycling RT/50° C.): Crystalline Form 5 | XRPD ([2]; MeOH 250 μL, cycling RT/50° C.): Crystalline Form 5 | XRPD ([2]; TBME 300 μL, cycling RT/50° C.): Crystalline Form 5 | XRPD ([2]; THF 150 μL, cycling RT/50° C.): Crystalline Form 5 | XRPD ([2]; THF/5% water 150 μL, cycling RT/50° C.): Crystalline Form 5
Compound: CC(=O)c1ccc2c(c1)[C@@H]1C=CC[C@@H]1[C@H](c1cc3c(cc1Br)OCO3)N2 [amorphous material]
XRPD ([2]; H2O 450 μL, cycling RT/50° C.): Partially crystalline =; also recorded: matches FB Pattern 4
